According to US20250099478A1, “PLASMA KALLIKREIN INHIBITORS” (Merck Sharp & Dohme LLC, priority 2022, published 2025):

What follows are compounds tested against T1, Human plasma kallikrein (Homo sapiens, UniProt P03952) (assay: Plasma Kallikrein Assay). Details: purified Human plasma kallikrein 0.5 nM, substrate Acetyl-K-P-R-AFC; read-out: PKal IC50.
T1 construct: yields a heavy chain (371 amino acids) and a light chain (248 amino acids); purchased Enzyme Research Laboratories
Assay type: biochemical
Protocol: The effectiveness of a compound of the present invention as an inhibitor of plasma kallikrein can be determined using a relevant purified serine protease, and an appropriate synthetic substrate. The rate of hydrolysis of the chromogenic or fluorogenic substrate by the relevant serine protease was measured both in the absence and presence of compounds of the present invention. Assays were conducted at rt or at 37° C. […] A decrease in the rate of fluorescence change in the presence of inhibitor is indicative of enzyme inhibition. Such methods are known to one skilled in the art. The results of this assay are expressed as the half-maximal inhibitory concentrations (IC50), or the inhibitory constant, Ki.
Plasma kallikrein determinations were made in 50 mM HEPES buffer at pH 7.4 containing 150 mM NaCl, 5 mM CaCl2), and 0.1% PEG 8000 (polyethylene glycol; Fisher Scientific). Determinations were made using purified Human plasma kallikrein at a final concentration of 0.5 nM (Enzyme Research Laboratories) and the synthetic substrate, Acetyl-K-P-R-AFC (Sigma #C6608) at a concentration of […].
Times required to achieve equilibration between enzyme and inhibitor were determined in control experiments. […] IC50 was determined by inflection point from a four parameter logistic curve fit. Ki was calculated using the Cheng Prusoff equation, Ki=IC50/(1+([S]/Km)).

T1 sequence (P03952 391-638 limits assumed): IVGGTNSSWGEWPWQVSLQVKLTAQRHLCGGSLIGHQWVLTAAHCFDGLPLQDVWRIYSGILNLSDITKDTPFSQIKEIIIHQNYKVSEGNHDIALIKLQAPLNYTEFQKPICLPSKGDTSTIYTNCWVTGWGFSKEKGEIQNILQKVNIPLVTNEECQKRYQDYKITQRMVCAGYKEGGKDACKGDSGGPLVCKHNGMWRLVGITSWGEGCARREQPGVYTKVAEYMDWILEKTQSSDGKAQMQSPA
T1 sequence (P03952 20-390 partner limits assumed): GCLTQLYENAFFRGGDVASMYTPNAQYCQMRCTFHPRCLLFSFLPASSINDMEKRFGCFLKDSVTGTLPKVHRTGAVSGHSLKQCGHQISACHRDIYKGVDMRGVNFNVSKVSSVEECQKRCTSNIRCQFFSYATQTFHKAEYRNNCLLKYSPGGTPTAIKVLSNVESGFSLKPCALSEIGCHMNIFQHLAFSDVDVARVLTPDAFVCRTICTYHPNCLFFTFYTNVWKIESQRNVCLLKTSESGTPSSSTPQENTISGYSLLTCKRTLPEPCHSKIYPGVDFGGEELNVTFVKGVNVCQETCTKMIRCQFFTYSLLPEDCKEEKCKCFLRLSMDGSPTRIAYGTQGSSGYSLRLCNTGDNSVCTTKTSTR

Row | SMILES | IC50 [nM]
1 | Cc1cccc(Cc2n[nH]c(C(=O)N3CCC[C@@]4(C3)OC(=O)Nc3ccc(Cl)c(F)c34)n2)c1 [Example 113, (R)-6-Chloro-1′-(3-(3-methylbenzyl)-1H-1,2,4-triazole-5-carbonyl)-5-fluorospiro[benzo[d][1,3]oxazine-4,3′-piperidin]-2(1H)-one] | 18.3
2 | O=C1Nc2ccc(Cl)c(F)c2[C@]2(CCN(C(=O)c3cnn(Cc4ccc(Cn5ccccc5=O)cn4)c3)C2)O1 [Example 133, (S)-6-Chloro-5-fluoro-1′-(1-((5-((2-oxopyridin-1(2H)-yl)methyl)pyridin-2-yl)methyl)-1H-pyrazole-4-carbonyl)spiro[benzo[d][1,3]oxazine-4,3′-pyrrolidin]-2(1H)-one] | 15.1
3 | O=C1Nc2ccc(Cl)c(F)c2[C@@]2(CCCN(C(=O)c3nnc(Cc4ccc5c(c4)OCO5)[nH]3)C2)O1 [Example 119, (R)-1′-(5-(Benzo[d][1,3]dioxol-5-ylmethyl)-4H-1,2,4-triazole-3-carbonyl)-6-chloro-5-fluorospiro[benzo[d][1,3]oxazine-4,3′-piperidin]-2(1H)-one] | 47.1
4 | C[C@H](c1cccc(Cl)c1)n1cc(C(=O)N2CCC[C@@]3(C2)OC(=O)Nc2ccc(Cl)c(F)c23)cn1 (single isomer, unassigned) [Example 28] | 10.4
5 | O=C(O)COc1ccc(Cn2cc(C(=O)N3CCC[C@@]4(C3)OC(=O)Nc3ccc(Cl)c(F)c34)cn2)cc1 [Example 52, (R)-2-(4-((4-(6-Chloro-5-fluoro-2-oxo-1,2-dihydrospiro[benzo[d][1,3]oxazine-4,3′-piperidine]-1′-carbonyl)-1H-pyrazol-1-yl)methyl)phenoxy)acetic acid] | 24.1
6 | O=C1Nc2ccc(Cl)c(F)c2[C@@]2(CCCN(C(=O)c3cnn(Cc4cccc(C5CC5)c4)c3)C2)O1 [Example 48, (R)-6-Chloro-1′-(1-(3-cyclopropylbenzyl)-1H-pyrazole-4-carbonyl)-5-fluorospiro[benzo[d][1,3]oxazine-4,3′-piperidin]-2(1H)-one] | 32.6
7 | O=C1Nc2ccc(Cl)c(F)c2[C@@]2(CCCN(C(=O)c3cnn(Cc4ccc(-c5c[nH]c(=O)o5)cc4)c3)C2)O1 [Example 53, (R)-6-Chloro-5-fluoro-1′-(1-(4-(2-oxo-2,3-dihydrooxazol-5-yl)benzyl)-1H-pyrazole-4-carbonyl)spiro[benzo[d][1,3]oxazine-4,3′-piperidin]-2(1H)-one] | 18.5
8 | O=C1Nc2ccc(Cl)c(F)c2[C@@]2(CCCN(C(=O)c3nnc(Cc4cc(Cl)c5nc[nH]c5c4)[nH]3)C2)O1 [Example 122, (R)-6-Chloro-1′-(5-((4-chloro-1H-benzo[d]imidazol-6-yl)methyl)-4H-1,2,4-triazole-3-carbonyl)-5-fluorospiro[benzo[d][1,3]oxazine-4,3′-piperidin]-2(1H)-one] | 17.5
9 | O=C1Nc2ccc(Cl)c(F)c2[C@@]2(CCCN(C(=O)c3nnc(Cc4ccc(F)c(Cl)c4)[nH]3)C2)O1 [Example 87, (R)-6-Chloro-1′-(5-(3-chloro-4-fluorobenzyl)-4H-1,2,4-triazole-3-carbonyl)-5-fluorospiro[benzo[d][1,3]oxazine-4,3′-piperidin]-2(1H)-one] | 49.7
10 | O=C1Nc2ccc(Cl)c(F)c2[C@]2(CCN(C(=O)c3cnn(Cc4ccc(Cn5ccccc5=O)cc4)c3)C2)O1 [Example 132] | 6.1
11 | O=C1Nc2ccc(Cl)c(F)c2[C@@]2(CCCN(C(=O)c3cnn(Cc4ccc5c(c4)COCC5)c3)C2)O1 [Example 56, (R)-6-Chloro-5-fluoro-1′-(1-(isochroman-7-ylmethyl)-1H-pyrazole-4-carbonyl)spiro[benzo[d][1,3]oxazine-4,3′-piperidin]-2(1H)-one] | 10.9
12 | COc1ccc(Cl)cc1Cn1cc(C(=O)N2CCC[C@@]3(C2)OC(=O)Nc2ccc(Cl)c(F)c23)cn1 [Example 13, (R)-6-Chloro-1′-(1-(5-chloro-2-methoxybenzyl)-1H-pyrazole-4-carbonyl)-5-fluorospiro[benzo[d][1,3]oxazine-4,3′-piperidin]-2(1H)-one] | 37.6
13 | CC(c1ccccc1)n1cc(C(=O)N2CCC[C@@]3(C2)OC(=O)Nc2ccc(Cl)c(F)c23)cn1 (single isomer, unassigned) [Example 23] | 46
14 | O=C1Nc2ccc(Cl)c(F)c2[C@@]2(CCCN(C(=O)c3nnc(Cc4ccc5c(c4)CCO5)[nH]3)C2)O1 [Example 117, (R)-6-Chloro-1′-(5-((2,3-dihydrobenzofuran-5-yl)methyl)-4H-1,2,4-triazole-3-carbonyl)-5-fluorospiro[benzo[d][1,3]oxazine-4,3′-piperidin]-2(1H)-one] | 34.8
15 | O=C1Nc2ccc(Cl)c(F)c2[C@@]2(CCCN(C(=O)c3cnn(Cc4cccc(C5CC5)c4)c3)C2)O1 [Example 10, (R)-6-Chloro-1′-(1-(3-cyclopropylbenzyl)-1H-pyrazole-4-carbonyl)-5-fluorospiro[benzo[d][1,3]oxazine-4,3′-piperidin]-2(1H)-one] | 26.8
16 | Cc1cc(Cc2nnc(C(=O)N3CCC[C@@]4(C3)OC(=O)Nc3ccc(Cl)c(F)c34)[nH]2)cc2[nH]nnc12 [Example 123, (R)-6-Chloro-5-fluoro-1′-(5-((4-methyl-1H-benzo[d][1,2,3]triazol-6-yl)methyl)-4H-1,2,4-triazole-3-carbonyl)spiro[benzo[d][1,3]oxazine-4,3′-piperidin]-2(1H)-one] | 19.1
17 | O=C1Nc2ccc(Cl)c(F)c2[C@@]2(CCCN(C(=O)c3cnn(Cc4ccc5c(c4)CNS5(=O)=O)c3)C2)O1 [Example 64, (R)-6-chloro-1′-(1-((1,1-dioxido-2,3-dihydrobenzo[d]isothiazol-5-yl)methyl)-1H-pyrazole-4-carbonyl)-5-fluorospiro[benzo[d][1,3]oxazine-4,3′-piperidin]-2(1H)-one] | 24.2
18 | O=C1Nc2ccc(Cl)c(F)c2[C@]2(CCN(C(=O)C3(F)CCN(Cc4ccc(Cn5ccccc5=O)cc4)CC3)C2)O1 [Example 138, (4S)-6-Chloro-5-fluoro-1′-(4-fluoro-1-(4-((2-oxopyridin-1(2H)-yl)methyl)benzyl)piperidine-4-carbonyl)spiro[benzo[d][1,3]oxazine-4,3′-pyrrolidin]-2(1H)-one] | 5.6
19 | O=C1Nc2ccc(Cl)c(F)c2[C@@]2(CCCN(C(=O)c3cnn(Cc4ccc5c(c4)OCCO5)c3)C2)O1 [Example 54, (R)-6-Chloro-1′-(1-((2,3-dihydrobenzo[b][1,4]dioxin-6-yl)methyl)-1H-pyrazole-4-carbonyl)-5-fluorospiro[benzo[d][1,3]oxazine-4,3′-piperidin]-2(1H)-one] | 29.8
20 | C[C@@H](c1cccc(Cl)c1)n1cc(C(=O)N2CCC[C@@]3(C2)OC(=O)Nc2ccc(Cl)c(F)c23)cn1 [Example 27, (R)-6-Chloro-1′-(1-((S)-1-(3-chlorophenyl)ethyl)-1H-pyrazole-4-carbonyl)-5-fluorospiro[benzo[d][1,3]oxazine-4,3′-piperidin]-2(1H)-one] | 10.9
21 | O=C1Nc2ccc(Cl)c(F)c2[C@@]2(CCCN(C(=O)c3nnc(Cc4ccc(CO)c(Cl)c4)[nH]3)C2)O1 [Example 125, (R)-6-Chloro-1′-(5-(3-chloro-4-(hydroxymethyl)benzyl)-4H-1,2,4-triazole-3-carbonyl)-5-fluorospiro[benzo[d][1,3]oxazine-4,3′-piperidin]-2(1H)-one] | 20.3
22 | O=C1Nc2ccc(Cl)c(F)c2[C@@]2(CCCN(C(=O)c3nnc(Cc4cccc(Cl)c4)[nH]3)C2)O1 [Example 118, (R)-6-Chloro-1′-(5-(3-chlorobenzyl)-4H-1,2,4-triazole-3-carbonyl)-5-fluorospiro[benzo[d][1,3]oxazine-4,3′-piperidin]-2(1H)-one] | 29.2
23 | O=C1Nc2ccc(Cl)c(F)c2[C@@]2(CCCN(C(=O)C3(F)CCN(Cc4ccccc4)C3)C2)O1 (single isomer, unassigned) [Example 131, (R)-1′-((S or R)-1-Benzyl-3-fluoropyrrolidine-3-carbonyl)-6-chloro-5-fluorospiro[benzo[d][1,3]oxazine-4,3′-piperidin]-2(1H)-one] | 9.4
24 | CC1CN(C(=O)c2cnn(Cc3ccccc3)c2)C[C@]2(C1)OC(=O)Nc1ccc(Cl)c(F)c12 (stereo partly drawn) [Example 20, (4R)-1′-(1-Benzyl-1H-pyrazole-4-carbonyl)-6-chloro-5-fluoro-5′-methylspiro[benzo[d][1,3]oxazine-4,3′-piperidin]-2(1H)-one] | 28.1
25 | Nc1noc2ccc(Cn3cc(C(=O)N4CCC[C@@]5(C4)OC(=O)Nc4ccc(Cl)c(F)c45)cn3)cc12 [Example 57, (R)-1′-(1-((3-Aminobenzo[d]isoxazol-5-yl)methyl)-1H-pyrazole-4-carbonyl)-6-chloro-5-fluorospiro[benzo[d][1,3]oxazine-4,3′-piperidin]-2(1H)-one] | 29.7
26 | CC1(C)COc2cc(Cn3cc(C(=O)N4CCC[C@@]5(C4)OC(=O)Nc4ccc(Cl)c(F)c45)cn3)ccc21 [Example 59, (R)-6-Chloro-1′-(1-((3,3-dimethyl-2,3-dihydrobenzofuran-6-yl)methyl)-1H-pyrazole-4-carbonyl)-5-fluorospiro[benzo[d][1,3]oxazine-4,3′-piperidin]-2(1H)-one] | 22.9
